Test results from patent US20190000908A1, “COMPOSITIONS AND METHODS FOR TREATING AND/OR PREVENTING A URINARY TRACT INFECTION” (priority 2017, published 2019).

What was measured:
Assay type in all cases: cell-based
[1] = test system: E. coli NCTC 9775; assay: Human Red Blood Cell (HRBC) agglutination assay, E. coli NCTC 9775; settings: strain 9775, FIG. 1 Raw C
Experimental: (§1) A whole blood (type 0 positive) was acquired from a volunteer and stored with EDTA at 4° C. Before the agglutination experiment, the red blood cells were isolated by centrifugation at 800 rpm for 15 minutes (in order to remove the platelets and plasma). The resulting red blood cells were suspended in phosphate buffered (PBS, pH 7.4) and washed three times to remove EDTA and other blood components, after each wash the supernatant was removed and the remaining cells were resuspended in PBS. Finally, RBC were diluted in 10 ml of PBS to create 1% RBC suspension that was stored at 4° C. until use.
(§2) Standard E. coli strains (NCTC 4169 and NCTC 9775) were grown on TSA plates for 24 h at 37° C. Colony was collected with sterile culturing needle and cells suspended in PBS and washed three times with PBS, after each wash the supernatant was removed. The cells were resuspended in PBS at final concentration of 10^9 cells/ml and stored at 4° C. for an hour.
(§3) The experiments were conducted in round bottom 96-well plate, with final volume 200 μl, made of 98 μl of the 1% RBC suspension, 2 μl extract (or PBS) and 100 μl bacterial suspension or PBS (as control). Extract were prepared in advance at different concentrations in PBS (10 mg/ml, 3 mg/ml, 1 mg/ml, 50 μg/ml and 1 μg/ml). […]

[2] = test system: E. coli NCTC 4169; assay: Human Red Blood Cell (HRBC) agglutination assay, E. coli NCTC 4169; settings: strain 4169, FIG. 1 Raw C
Experimental: as §1, §2, §3

[3] = test system: E. coli strains (NCTC 4169 and NCTC 9775); assay: Human Red Blood Cell (HRBC) agglutination assay, strain not specified for the result; settings: human RBC + E. coli; strain not stated
Experimental: as §1, §2, §3

## O=C[C@@H](O)[C@@H](O)[C@H](O)[C@H](O)CO [D-mannose, D-Mannose]
[1]
  D-mannose sensitivity of bacteria-induced RBC agglutination: D-mannose sensitive
[2]
  D-mannose sensitivity of bacteria-induced RBC agglutination: not D-mannose sensitive
[3]
  concentration that induced agglutination prevention/inhibition: 5 to 10 mg/mL
